In PMC10447463, “Data-mining unveils structure–property–activity correlation of viral infectivity enhancing self-assembling peptides” (Nature Communications, 2023):
Values joined by “and” are separate entries in the source; they are usually repeats but may differ in a detail not shown here. Equal entries are not always repeated. Where two headings read alike, the source gives them in different places.

Columns and labels:
[1] = Turbidity, derived count rate of scattered light; type: physicochemical; settings: for Count Rate / kcps: derived count rate of scattered light at 633 nm, 173°, from zeta-potential measurement, 0.1 mg/mL in 1 mM KCl after 1 d at 1 mg/mL in PBS, turbidity / microscopic aggregation, mean of triplicate
Procedure: 4 µL of 1 mg/mL peptide fibrils solution is added to a 20 µL, 50 µM ThT–solution in PBS. The mixture is incubated for 15 min at RT to allow binding of ThT dye with β–sheet rich structures. For reference PBS (4 µL) was added instead of peptide fibril solution. The samples were placed in black UV Star® 384 microliter well–plates (Greiner bio–one). Fluorescence spectra were recorded on an Infinite® M1000 PRO microplate reader (Tecan) at λem = 488 nm upon excitation at λex = 440 nm with 10 nm bandwidths and multiple reads per well (3×3). Measurements were repeated in triplicates and averaged with standard deviation. […] Zeta-Potential. For the determination of the surface charge of aggregated peptides zeta-potential measurements were conducted with a Zetasizer Nano ZS, Malvern Instruments. Unless stated otherwise the peptides were dissolved from DMSO (10 mg/mL) in PBS (pH 7.4) to concentration of 1 mg/mL and incubated for 1d at RT. Just before the measurement the 60 µL of the peptides were further diluted in 600 µL KCl (aq, 1 mM) in a 1 mL disposable folded capillary cells (DTS–1060, Zetasizer Nano series, Malvern). The zeta potential of the peptides was derived from the electrophoretic mobility based on the Smoluchowski formula. All measurements were averaged over two individually performed experiments and conducted in triplicates for each sample. Aggregate analysis. […] Furthermore, fluorescence microscopy was conducted by staining 1 µL preformed fibrils (1 mg/mL) with 9 µL ThT (50 µM). Brightfield microscopy was performed simultaneously to evaluate aggregation also for non ThT-active fibrils. The measurements were performed on a Leica DMi8 microscope with 10x air objective and equipped with a Leica MC170 HD camera with a filter setting λem = 527/30 nm upon excitation at λex = 480/40 nm) and processed with the Leica LASX software. To quantify size and number of microscopic aggregation of particles > 10 µm^2 at least 3 independently measured images were analyzed via the 3D object counter analysis tool of ImageJ, v 1.53f51. Sum–frequency generation. The SFG experiments were carried out with a femtosecond Ti: Sapphire amplified laser system (Spitfire Ace, Spectra–Physics, 800 nm, 40 fs, 1 kHz) with 5 W output power. We used 2 W to pump an optical parametric amplifier (TOPAS, light conversion) with a non–collinear difference frequency generation stage to generate broadband IR pulses. Another 1 W of the laser output passed through an etalon to generate narrowband visible pulses (10 cm^-1). The incident angles of the visible and IR beams were 36° and 41° with respect to the surface normal, respectively. The visible (13 µJ) and IR (5 µJ) pulses were overlapped spatially and temporally at the sample position. Subsequently, the generated SFG pulse was guided into a spectrograph (Acton SP 300i, Princeton Instruments), and detected with an EMCCD (Newton, Andor Technology). To avoid IR absorption of water vapor, we purged N2 for the measurement. All spectra were collected in the ssp (denoting s-, s- and p-polarized SFG, visible and IR, respectively) polarization combination. The spectra were normalized to the non–resonant signal taken from z–cut quartz after subtracting a background spectrum. […]
ways to determine turbidity of samples, this can be via transmittance and via scattering. Transmittance […]
as it is an easy and fast method.10,11 However, transmittance contributes not only from µm-sized aggregates but also nm-sized aggregates such as distinct fibrils, which makes hard to distinguish between fibril formation and micrometer sized aggregation. Although dynamic light scattering is a frequently applied method for determination of particle size, it cannot be conducted in solutions with anisotropic aggregates in micrometer size range, since the Stokes-Einstein relation is only applicable for homogeneous […] spherical particles.12 Further models describing scattering intensity and […]

[2] = type: physicochemical; settings: for ThT Cat. / ThT-Fluorescence (categorical): ThT-active if fluorescence at least twice the control
Summary of the method: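 Fibrils (1 mg/mL solution) were mixed with 50 µM ThT in PBS for 15 min at RT, and fluorescence was read at λex 440/λem 488 nm against a PBS blank, as a triplicate mean ± SD. Zeta potential came from electrophoretic mobility (Smoluchowski) after 1 d aggregation at 1 mg/mL in PBS pH 7.4, diluted into 1 mM KCl.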

[3] = Log10 of derived count rate of scattered light (turbidity)
[4] = log10 of derived count rate of scattered light (turbidity)
[5] = turbidity, Log10 of derived count rate of scattered light, Figure 3A source data
[6] = logarithm of count rate in kcps
[7] = ThT fluorescence category, 1 if Rel. ThT >2

| Substance | Log10 Count Rate [1, 3] | Count Rate / kcps [1] | Log10 Count Rate [1, 4] | Log10 Count Rate [1, 5] | Tht category (> 2 to blank = +) ([2]; Fig S10 panel D) | ThT Cat, ([2]; ThT category, 1 if Rel. ThT >2) | ThT Cat. ([2]; ThT category, 1 if Rel. ThT >2) | ThT Cat. / ThT-Fluorescence (categorical) [2] | Log10 Count Rate [1, 6] | Tht category (> 2 to blank = +) ([2]; FigS12 panel A) | ThT Cat, ([2]; FigS12 panel B) | Rel. ThT ([2]; n-fold ThT fluorescence vs control (PBS, 10% DMSO), 4 µL 1 mg/mL fibrils + 20 µL 50 µM ThT, 15 min RT, ex 440 / em 488 nm, triplicate) | ThT Cat. ([2]; Fig S10 panel E) | ThT Cat. [2, 7] | Zeta Count Rate ([1]; mean of the 3 replicates) [kcps] | Zeta Count Rate ([1]; replicate 2) [kcps] | Zeta Count Rate ([1]; replicate 3) [kcps] | Log10 Count Rate ([1]; turbidity, log10 of derived count rate of scattered light) |
| --- | --- | --- | --- | --- | --- | --- | --- | --- | --- | --- | --- | --- | --- | --- | --- | --- | --- | --- |
| KFKQFFINMWQ | 3.954 | 8996 kcps | 3.954 | 3.954 | 0 (ThT-inactive (N-Fold <2)) | 0 (ThT-inactive (N-Fold <2)) | 0 (ThT-inactive (N-Fold <2)) | 0 (ThT-inactive (N-Fold <2)) |  |  |  |  |  |  |  |  |  |  |
| KIKIQINMWQRGD | 3.445 | 2783 kcps | 3.445 | 3.445 | 0 (ThT-inactive (N-Fold <2)) | 0 (ThT-inactive (N-Fold <2)) | 0 (ThT-inactive (N-Fold <2)) | 0 (ThT-inactive (N-Fold <2)) | 3.4 | 0 (ThT-inactive (N-Fold <2)) | 0 (ThT-inactive (N-Fold <2)) | 1.5 |  |  |  |  |  |  |
| KIKIKIQI | 3 | 999 kcps | 3 | 3 | 1 (ThT. Cat is 1, if Rel. ThT >2) | 1 (ThT. Cat is 1, if Rel. ThT >2) |  | 1 (ThT. Cat is 1, if Rel. ThT >2) |  | 1 (ThT. Cat is 1, if Rel. ThT >2) | 1 (ThT. Cat is 1, if Rel. ThT >2) |  | 1 (ThT. Cat is 1, if Rel. ThT >2) | 1 (ThT. Cat is 1, if Rel. ThT >2) |  |  |  |  |
| CKIKIQI | 3.386 | 2432 ± 1342 kcps and 2433 kcps | 3.386 | 3.386 | 1 (ThT. Cat is 1, if Rel. ThT >2) | 1 (ThT. Cat is 1, if Rel. ThT >2) |  | 1 (ThT. Cat is 1, if Rel. ThT >2) | 3.386 |  |  |  | 1 (ThT. Cat is 1, if Rel. ThT >2) | 1 (ThT. Cat is 1, if Rel. ThT >2) | 2432.9 | 1640.5 | 4323.3 |  |
| KIKQII | 2.086 | 122 kcps | 2.086 | 2.086 | 0 (ThT-inactive (N-Fold <2)) | 0 (ThT-inactive (N-Fold <2)) |  | 0 (ThT-inactive (N-Fold <2)) |  | 0 (ThT-inactive (N-Fold <2)) | 0 (ThT-inactive (N-Fold <2)) |  | 0 (ThT-inactive (N-Fold <2)) | 0 (ThT-inactive (N-Fold <2)) |  |  |  |  |
| CKFKQFFNM | 4.436 | 27264 ± 5488 kcps and 27264 kcps |  | 4.436 | 1 (ThT. Cat is 1, if Rel. ThT >2) | 1 (ThT. Cat is 1, if Rel. ThT >2) | 1 (ThT. Cat is 1, if Rel. ThT >2) | 1 (ThT. Cat is 1, if Rel. ThT >2) | 4.436 |  |  |  |  |  |  |  |  | 4.436 |
